Measured values: US11053218B2, “3-(1-oxoisoindolin-2-yl)piperidine-2,6-dione derivatives and uses thereof” (Novartis AG, priority 2017, dated 2021)
Structures can show the parent of a compound that is named as a salt.

Assays:
IKZF2 = IKZF2 (Homo sapiens, UniProt Q96SW2+Q9UKS7); assay: Prolabel quantification of IKZF2 protein levels in 293GT cells; assay type: cell-based; conditions: for inhibition at 10 µM: 24 h, read-out: IKZF2 % protein reduction at 10 μM, 24 h; for inhibition at 10 µM / DC50: 293GT cells; for DC50: Prolabel assay, read-out: IKZF2 EC50; for IKZF2 protein levels as compared to the control (DMSO): Prolabel assay in HEK293GT cells, bar graph
IKZF1 = IKZF1 (Homo sapiens, UniProt Q13422+Q96SW2); assay: Prolabel quantification of IKZF1 protein levels in 293GT cells; assay type: cell-based; conditions: Prolabel assay, read-out: IKZF1 EC50
Sequence of IKZF1 (Q13422 whole entry): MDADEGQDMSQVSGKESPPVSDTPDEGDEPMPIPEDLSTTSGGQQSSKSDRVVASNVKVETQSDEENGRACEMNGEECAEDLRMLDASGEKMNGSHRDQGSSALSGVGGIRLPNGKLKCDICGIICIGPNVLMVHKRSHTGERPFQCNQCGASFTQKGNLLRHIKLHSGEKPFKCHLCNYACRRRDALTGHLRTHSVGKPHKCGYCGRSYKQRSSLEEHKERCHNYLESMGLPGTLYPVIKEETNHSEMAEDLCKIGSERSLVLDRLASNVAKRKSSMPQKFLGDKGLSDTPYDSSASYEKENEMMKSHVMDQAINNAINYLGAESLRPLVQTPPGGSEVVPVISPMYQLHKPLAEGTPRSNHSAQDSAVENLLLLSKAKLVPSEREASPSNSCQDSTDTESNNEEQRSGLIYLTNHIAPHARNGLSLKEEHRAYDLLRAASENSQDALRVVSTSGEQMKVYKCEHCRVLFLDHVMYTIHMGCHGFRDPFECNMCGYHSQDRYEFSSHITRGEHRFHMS
Sequence of IKZF1 (Q96SW2 whole entry): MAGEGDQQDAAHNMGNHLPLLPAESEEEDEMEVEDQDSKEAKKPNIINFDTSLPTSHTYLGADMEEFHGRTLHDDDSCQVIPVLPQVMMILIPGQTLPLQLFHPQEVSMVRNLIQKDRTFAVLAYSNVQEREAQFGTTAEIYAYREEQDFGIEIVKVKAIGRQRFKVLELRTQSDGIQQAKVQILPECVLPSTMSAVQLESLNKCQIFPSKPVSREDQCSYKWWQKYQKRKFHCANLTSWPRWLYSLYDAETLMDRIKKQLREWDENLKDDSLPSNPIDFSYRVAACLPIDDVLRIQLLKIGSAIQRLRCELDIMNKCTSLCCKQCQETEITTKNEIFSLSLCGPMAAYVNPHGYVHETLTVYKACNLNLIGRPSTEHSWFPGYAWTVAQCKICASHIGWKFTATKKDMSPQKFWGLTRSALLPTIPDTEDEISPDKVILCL
Sequence of IKZF1 (Q16531 whole entry partner): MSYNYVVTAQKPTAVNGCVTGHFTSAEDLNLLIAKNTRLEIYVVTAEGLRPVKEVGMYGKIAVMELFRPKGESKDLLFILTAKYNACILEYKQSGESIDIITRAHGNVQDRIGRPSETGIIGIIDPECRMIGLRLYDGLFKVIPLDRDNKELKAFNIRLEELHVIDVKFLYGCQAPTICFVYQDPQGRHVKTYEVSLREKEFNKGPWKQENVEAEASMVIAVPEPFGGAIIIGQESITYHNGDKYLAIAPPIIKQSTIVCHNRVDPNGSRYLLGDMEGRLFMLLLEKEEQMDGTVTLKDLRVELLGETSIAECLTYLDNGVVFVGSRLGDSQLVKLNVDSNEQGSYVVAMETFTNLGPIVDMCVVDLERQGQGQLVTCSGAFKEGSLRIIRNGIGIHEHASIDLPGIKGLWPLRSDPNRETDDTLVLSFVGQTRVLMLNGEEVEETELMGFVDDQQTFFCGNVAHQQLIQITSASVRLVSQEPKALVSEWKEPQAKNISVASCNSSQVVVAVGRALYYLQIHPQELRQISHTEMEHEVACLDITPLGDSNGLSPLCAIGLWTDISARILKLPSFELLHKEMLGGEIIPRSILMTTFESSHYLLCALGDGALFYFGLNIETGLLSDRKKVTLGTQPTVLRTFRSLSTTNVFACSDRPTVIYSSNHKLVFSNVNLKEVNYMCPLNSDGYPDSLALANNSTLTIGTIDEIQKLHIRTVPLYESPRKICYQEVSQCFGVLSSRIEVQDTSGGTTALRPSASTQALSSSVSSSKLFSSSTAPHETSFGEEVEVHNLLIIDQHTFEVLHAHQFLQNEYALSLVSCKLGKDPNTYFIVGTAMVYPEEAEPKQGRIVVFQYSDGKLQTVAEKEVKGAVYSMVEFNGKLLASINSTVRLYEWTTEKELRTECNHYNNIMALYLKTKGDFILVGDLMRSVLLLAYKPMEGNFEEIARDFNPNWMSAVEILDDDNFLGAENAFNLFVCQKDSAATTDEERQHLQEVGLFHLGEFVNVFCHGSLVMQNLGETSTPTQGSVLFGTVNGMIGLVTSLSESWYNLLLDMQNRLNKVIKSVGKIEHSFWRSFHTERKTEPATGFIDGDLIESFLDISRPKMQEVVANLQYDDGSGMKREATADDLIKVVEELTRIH

Sequence of IKZF2 (Q9UKS7 whole entry): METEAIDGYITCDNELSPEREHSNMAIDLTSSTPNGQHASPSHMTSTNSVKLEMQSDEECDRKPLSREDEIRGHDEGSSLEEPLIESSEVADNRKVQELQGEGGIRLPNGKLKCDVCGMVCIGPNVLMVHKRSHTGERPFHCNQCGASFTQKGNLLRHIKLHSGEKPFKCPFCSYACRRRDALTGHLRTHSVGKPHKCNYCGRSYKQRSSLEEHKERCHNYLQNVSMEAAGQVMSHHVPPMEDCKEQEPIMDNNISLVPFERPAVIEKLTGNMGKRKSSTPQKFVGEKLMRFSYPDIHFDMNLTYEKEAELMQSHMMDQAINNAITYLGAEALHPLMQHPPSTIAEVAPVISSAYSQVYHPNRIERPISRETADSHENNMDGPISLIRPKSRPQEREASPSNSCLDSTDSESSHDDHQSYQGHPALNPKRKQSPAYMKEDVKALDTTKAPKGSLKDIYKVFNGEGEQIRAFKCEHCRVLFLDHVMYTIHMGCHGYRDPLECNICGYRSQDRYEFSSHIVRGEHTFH
Sequence of IKZF2 (Q96SW2 whole entry): as the sequence (Q96SW2 whole entry) above
Sequence of IKZF2 (Q16531 whole entry partner): as the sequence (Q16531 whole entry partner) above

## CC1CN(Cc2ccccc2)CCC1c1ccc2c(c1)CN(C1CCC(=O)NC1=O)C2=O (centres unmarked) [Compound I-187, 3-(5-(1-benzyl-3-methylpiperidin-4-yl)-1-oxoisoindolin-2-yl)piperidine-2,6-dione]
IKZF2
  inhibition at 10 µM: 50%
  DC50: 67 nM
IKZF1
  DC50: > 30 µM

## O=C1CCC(N2Cc3cc(C4=CCN(Cc5ccccc5)C4)ccc3C2=O)C(=O)N1 (centres unmarked) [Compound I-191, 3-(5-(1-benzyl-2,5-dihydro-1H-pyrrol-3-yl)-1-oxoisoindolin-2-yl)piperidine-2,6-dione]
IKZF2
  inhibition at 10 µM: 10%
  DC50: 4200 nM
IKZF1
  DC50: > 30 µM

## O=C1CCC(N2Cc3cc(C4CCN(Cc5nc6ccccc6s5)CC4)ccc3C2=O)C(=O)N1 (centres unmarked) [Compound I-200, 3-(5-(1-(benzo[d]thiazol-2-ylmethyl)piperidin-4-yl)-1-oxoisoindolin-2-yl)piperidine-2,6-dione]
IKZF2
  inhibition at 10 µM: 35%
  DC50: 67 nM
IKZF1
  DC50: > 30 µM

## O=C1CCC(N2Cc3cc(C4CCN(Cc5cc(-c6ccccn6)n[nH]5)CC4)ccc3C2=O)C(=O)N1 (centres unmarked) [Compound I-201, 3-(1-oxo-5-(1-((3-(pyridin-2-yl)-1H-pyrazol-5-yl)methyl)piperidin-4-yl)isoindolin-2-yl)piperidine-2,6-dione]
IKZF2
  inhibition at 10 µM: 75%
  DC50: 33 nM
IKZF1
  DC50: > 30 µM

## O=C1CCC(N2Cc3cc(C4CCN(Cc5ncon5)CC4)ccc3C2=O)C(=O)N1 (centres unmarked) [Compound I-204, 3-(5-(1-((1,2,4-oxadiazol-3-yl)methyl)piperidin-4-yl)-1-oxoisoindolin-2-yl)piperidine-2,6-dione]
IKZF2
  inhibition at 10 µM: 0%
  DC50: > 50000 nM
IKZF1
  DC50: > 50 µM

## Cc1cc2nc(CN3CCC(c4ccc5c(c4)CN(C4CCC(=O)NC4=O)C5=O)CC3)cc(O)n2n1 (centres unmarked) [Compound I-208, 3-(5-(1-((7-hydroxy-2-methylpyrazolo[1,5-a]pyrimidin-5-yl)methyl)piperidin-4-yl)-1-oxoisoindolin-2-yl)piperidine-2,6-dione]
IKZF2
  inhibition at 10 µM: 60%
  DC50: 1500 nM
IKZF1
  DC50: > 30 µM

## O=C1CCC(N2Cc3cc(C4CCN(C(c5ccccc5)C(F)F)CC4)ccc3C2=O)C(=O)N1 (centres unmarked) [Compound I-209, 3-(5-(1-(2,2-difluoro-1-phenylethyl)piperidin-4-yl)-1-oxoisoindolin-2-yl)piperidine-2,6-dione]
IKZF2
  inhibition at 10 µM: 40%
  DC50: 140 nM
IKZF1
  DC50: > 30 µM

## O=C1CCC(N2Cc3cc(C4CCN(C(CF)c5ccccc5)CC4)ccc3C2=O)C(=O)N1 (centres unmarked) [Compound I-212, 3-(5-(1-(2-fluoro-1-phenylethyl)piperidin-4-yl)-1-oxoisoindolin-2-yl)piperidine-2,6-dione]
IKZF2
  inhibition at 10 µM: 60%
  DC50: 49 nM
IKZF1
  DC50: > 30 µM

## O=C1CCC(N2Cc3cc(C4CCN(Cc5cc(C(F)(F)F)cc(C(F)(F)F)c5)CC4)ccc3C2=O)C(=O)N1 (centres unmarked) [Compound I-215, 3-(5-(1-(3,5-bis(trifluoromethyl)benzyl)piperidin-4-yl)-1-oxoisoindolin-2-yl)piperidine-2,6-dione]
IKZF2
  inhibition at 10 µM: 50%
  DC50: 19 nM
IKZF1
  DC50: > 30 µM

## N#Cc1cccc(CN2CCC(c3ccc4c(c3)CN(C3CCC(=O)NC3=O)C4=O)CC2)n1 (centres unmarked) [Compound I-217, 6-((4-(2-(2,6-dioxopiperidin-3-yl)-1-oxoisoindolin-5-yl)piperidin-1-yl)methyl)picolinonitrile]
IKZF2
  inhibition at 10 µM: 40%
  DC50: 8 nM
IKZF1
  DC50: > 30 µM

## N#CCOc1ccc(CN2CCC(c3ccc4c(c3)CN(C3CCC(=O)NC3=O)C4=O)CC2)cc1 (centres unmarked) [Compound I-218, 2-(4-((4-(2-(2,6-dioxopiperidin-3-yl)-1-oxoisoindolin-5-yl)piperidin-1-yl)methyl)phenoxy)acetonitrile]
IKZF2
  inhibition at 10 µM: 60%
  DC50: 4 nM
IKZF1
  DC50: > 30 µM

## O=C1CCC(N2Cc3cc(C4CCN(Cc5ccc6[nH]ncc6c5)CC4)ccc3C2=O)C(=O)N1 (centres unmarked) [Compound I-219, 3-(5-(1-((1H-indazol-5-yl)methyl)piperidin-4-yl)-1-oxoisoindolin-2-yl)piperidine-2,6-dione]
IKZF2
  inhibition at 10 µM: 80%
  IKZF2 protein levels as compared to the control (DMSO): decreased
  DC50: 11 nM
IKZF1
  DC50: > 25 µM

## Cc1ccc2nc(CN3CCC(c4ccc5c(c4)CN(C4CCC(=O)NC4=O)C5=O)CC3)cc(=O)n2c1 (centres unmarked) [Compound I-221, 3-(5-(1-((7-methyl-4-oxo-4H-pyrido[1,2-a]pyrimidin-2-yl)methyl)piperidin-4-yl)-1-oxoisoindolin-2-yl)piperidine-2,6-dione]
IKZF2
  inhibition at 10 µM: 30%
  DC50: 36 nM
IKZF1
  DC50: > 50 µM

## O=C1CCC(N2Cc3cc(C4CCN(C(c5ccccc5)C(F)(F)F)CC4)ccc3C2=O)C(=O)N1 (centres unmarked) [Compound I-224, 3-(1-oxo-5-(1-(2,2,2-trifluoro-1-phenylethyl)piperidin-4-yl)isoindolin-2-yl)piperidine-2,6-dione HC(O)OH salt]
IKZF2
  inhibition at 10 µM: 0%
  DC50: > 50000 nM
IKZF1
  DC50: > 50 µM

## O=C1CCC(N2Cc3cc(C4CCN(Cc5nccc6ccccc56)CC4)ccc3C2=O)C(=O)N1 (centres unmarked) [Compound I-226, 3-(5-(1-(isoquinolin-1-ylmethyl)piperidin-4-yl)-1-oxoisoindolin-2-yl)piperidine-2,6-dione]
IKZF2
  inhibition at 10 µM: 50%
  DC50: 10 nM
IKZF1
  DC50: > 25 µM

## COC1CCN(c2ccc(CN3CCC(c4ccc5c(c4)CN(C4CCC(=O)NC4=O)C5=O)CC3)cc2)CC1 (centres unmarked) [Compound I-227, 3-(5-(1-(4-(4-methoxypiperidin-1-yl)benzyl)piperidin-4-yl)-1-oxoisoindolin-2-yl)piperidine-2,6-dione]
IKZF2
  inhibition at 10 µM: 60%
  DC50: 4 nM
IKZF1
  DC50: > 30 µM

## CC(C)Sc1ccc(CN2CCC(c3ccc4c(c3)CN(C3CCC(=O)NC3=O)C4=O)CC2)cc1 (centres unmarked) [Compound I-228, 3-(5-(1-(4-(isopropylthio)benzyl)piperidin-4-yl)-1-oxoisoindolin-2-yl)piperidine-2,6-dione]
IKZF2
  inhibition at 10 µM: 70%
  DC50: 10 nM
IKZF1
  DC50: > 30 µM

## O=C(O)Cc1ccc(CN2CCC(c3ccc4c(c3)CN(C3CCC(=O)NC3=O)C4=O)CC2)cc1 (centres unmarked) [Compound I-231, 2-(4-((4-(2-(2,6-dioxopiperidin-3-yl)-1-oxoisoindolin-5-yl)piperidin-1-yl)methyl)phenyl)acetic acid]
IKZF2
  inhibition at 10 µM: 60%
  DC50: 250 nM
IKZF1
  DC50: > 30 µM

## Nc1nc(C(F)(F)F)c(CN2CCC(c3ccc4c(c3)CN(C3CCC(=O)NC3=O)C4=O)CC2)s1 (centres unmarked) [Compound I-234, 3-(5-(1-((2-amino-4-(trifluoromethyl)thiazol-5-yl)methyl)piperidin-4-yl)-1-oxoisoindolin-2-yl)piperidine-2,6-dione]
IKZF2
  inhibition at 10 µM: 50%
  DC50: 120 nM
IKZF1
  DC50: > 30 µM

## NC(=O)c1nc(CN2CCC(c3ccc4c(c3)CN(C3CCC(=O)NC3=O)C4=O)CC2)no1 (centres unmarked) [Compound I-235, 3-((4-(2-(2,6-dioxopiperidin-3-yl)-1-oxoisoindolin-5-yl)piperidin-1-yl)methyl)-1,2,4-oxadiazole-5-carboxamide]
IKZF2
  inhibition at 10 µM: 40%
  DC50: 2440 nM
IKZF1
  DC50: > 30 µM

## O=C1CCC(N2Cc3cc(C4CCN(Cc5cccc(S(=O)(=O)N6CCOCC6)c5)CC4)ccc3C2=O)C(=O)N1 (centres unmarked) [Compound I-236, 3-(5-(1-(3-(morpholinosulfonyl)benzyl)piperidin-4-yl)-1-oxoisoindolin-2-yl)piperidine-2,6-dione]
IKZF2
  inhibition at 10 µM: 80%
  IKZF2 protein levels as compared to the control (DMSO): decreased
  DC50: 3 nM
IKZF1
  DC50: > 25 µM

## O=C1CCC(N2Cc3cc(C4CCN(Cc5cscn5)CC4)ccc3C2=O)C(=O)N1 (centres unmarked) [Compound I-238, 3-(1-oxo-5-(1-(thiazol-4-ylmethyl)piperidin-4-yl)isoindolin-2-yl)piperidine-2,6-dione]
IKZF2
  inhibition at 10 µM: 60%
  DC50: 110 nM
IKZF1
  DC50: > 25 µM

## CC(C)(C)c1ccc(C(=O)N2CCC(c3ccc4c(c3)CN(C3CCC(=O)NC3=O)C4=O)CC2)cc1 (centres unmarked) [Compound I-242, 3-(5-(1-(4-(tert-butyl)benzoyl)piperidin-4-yl)-1-oxoisoindolin-2-yl)piperidine-2,6-dione]
IKZF2
  inhibition at 10 µM: 5%
  DC50: > 30000 nM
IKZF1
  DC50: > 30 µM

## O=C1CCC(N2Cc3cc(C4CCN(Cc5ccc(OCc6ccc(F)cc6)cc5)CC4)ccc3C2=O)C(=O)N1 (centres unmarked) [Compound I-244, 3-(5-(1-(4-((4-fluorobenzyl)oxy)benzyl)piperidin-4-yl)-1-oxoisoindolin-2-yl)piperidine-2,6-dione]
IKZF2
  inhibition at 10 µM: 75%
  DC50: 91 nM
IKZF1
  DC50: > 30 µM

## Cc1cc(CN2CCC(c3ccc4c(c3)CN(C3CCC(=O)NC3=O)C4=O)CC2)on1 (centres unmarked) [Compound I-245, 3-(5-(1-((3-methylisoxazol-5-yl)methyl)piperidin-4-yl)-1-oxoisoindolin-2-yl)piperidine-2,6-dione]
IKZF2
  inhibition at 10 µM: 40%
  DC50: 37 nM
IKZF1
  DC50: > 50 µM

## O=C1CCC(N2Cc3cc(C4CCN(Cc5ccon5)CC4)ccc3C2=O)C(=O)N1 (centres unmarked) [Compound I-246, 3-(5-(1-(isoxazol-3-ylmethyl)piperidin-4-yl)-1-oxoisoindolin-2-yl)piperidine-2,6-dione]
IKZF2
  inhibition at 10 µM: 40%
  DC50: 12 nM
IKZF1
  DC50: > 50 µM

## COCc1ccc(CN2CCC(c3ccc4c(c3)CN(C3CCC(=O)NC3=O)C4=O)CC2)cc1 (centres unmarked) [Compound I-248, 3-(5-(1-(4-(methoxymethyl)benzyl)piperidin-4-yl)-1-oxoisoindolin-2-yl)piperidine-2,6-dione]
IKZF2
  inhibition at 10 µM: 70%
  DC50: 16 nM
IKZF1
  DC50: > 30 µM

## O=C1CCC(N2Cc3cc(C4CCN(Cc5ccc(S(=O)(=O)C(F)F)cc5)CC4)ccc3C2=O)C(=O)N1 (centres unmarked) [Compound I-252, 3-(5-(1-(4-((difluoromethyl)sulfonyl)benzyl)piperidin-4-yl)-1-oxoisoindolin-2-yl)piperidine-2,6-dione]
IKZF2
  inhibition at 10 µM: 75%
  DC50: 30 nM
IKZF1
  DC50: > 30 µM
